Data from patent US8906913B2, “Azabicyclohexanes” (Panacea Biotec Limited, priority 2009, dated 2014).
Values after ≈ are worked out from the molar mass of the structure shown.

Legend:
[1] = test system: Enterococcus faecalis ATCC 29212 Vancomycin Sensitive; assay: In-vitro antibacterial activity, broth microdilution MIC; format: cell-based; conditions: ATCC29212, Table 9, E. faecalis, read-out: Antimicrobial activity (in vitro MIC) ATCC 29212
Method: (§1) The in-vitro antibacterial activity of the compounds of the present invention (as described in Table 7) was determined by a broth microdilution following the guidelines prescribed by the Clinical and Laboratory Standards Institute (CLSI). This method is described in the CLSI Document M7-A7, Vol. 26, No. 2, “Methods for Dilution Antimicrobial Susceptibility Test for Bacteria that Grow Aerobically; Approved Standard-Seventh Edition”, which is incorporated herein by reference. Minimum Inhibitory Concentration (MIC) is defined as the minimum concentration of test compound which inhibits the growth of bacteria as visible or seen by the naked eye. This test can also be carried out by agar dilution method.
(§2) The compounds of the present invention were tested against a panel of standard microorganisms obtained from ATCC (American type culture collection). Linezolid was used as comparator in all the tests.
(§3) In the broth microdilution method, the compound was dissolved in dimethylsulfoxide and two fold serial dilutions were carried out in 96 well microtitre plates. The inoculum was prepared by adjusting the turbidity of actively growing broth culture and added to the wells to obtain a final bacterial count of ˜2-5×10^4 CFU/well. The microtitre plates were incubated at 35±2° C. for 16-20 h and then read visually.

[2] = test system: Enterococcus faecium ATCC 700221 VRE (Vancomycin resistant E. faecium); assay: as above; format: cell-based; conditions: Table 9, read-out: Antimicrobial activity (in vitro MIC) ATCC 700221
Method: as §1, §2, §3

[3] = test system: Staphylococcus aureus ATCC 29213 MSSA (Methicillin sensitive); assay: as above; format: cell-based; conditions: Table 9, S. aureus MSSA, read-out: Antimicrobial activity (in vitro MIC) ATCC 29213
Method: as §1, §2, §3

[4] = test system: Staphylococcus aureus ATCC 33591 MRSA (Methicillin resistant); assay: as above; format: cell-based; conditions: Table 9, S. aureus MRSA, read-out: Antimicrobial activity (in vitro MIC) ATCC 33591
Method: as §1, §2, §3

male SWISS albino mice = assay: Forced Swim Test; format: in vivo; conditions: mice; for CNS Activity (in vivo FST) % decrease in immobility time / CNS Activity (in vivo FST) % decrease in immobility time (dose 32 mg/kg): Table 9; for CNS Activity (in vivo FST) % decrease in immobility time: footnote *: dose 64 mg/kg/p.o; for inhibition in vivo at 32 mg/kg: Mus musculus, 0.25 h, Table 8, oral, suspended in deionized water, 15 min before test, read-out: % decrease in immobility time (dose 32 mg/kg)
Method: This test was conducted according to the method of Porsolt et al. (Porsolt, R. D., et al., Behavioural despair in mice: A primary screening test for antidepressants. Arch. in Pharmacodyn. Ther., 229, pp 327-336 (1977)).
A test compound was suspended in deionized water, unless otherwise specified, and this suspension was orally administered to male SWISS albino mice (7 to 9 week old). 15 min later, the mice were placed in a water tank having a water depth of 15 cm and a water temperature of 25±1° C. and immediately thereafter allowed to swim for 6 min. Then, a time during which the mouse was immobile (immobility time) was measured for the last 4 min.

| SMILES | MIC [1] [mg/L] | MIC [2] [mg/L] | MIC [3] [mg/L] | MIC [4] [mg/L] | CNS Activity (in vivo FST) % decrease in immobility time (male SWISS albino mice) | CNS Activity (in vivo FST) % decrease in immobility time (dose 32 mg/kg) (male SWISS albino mice) [%] | inhibition in vivo at 32 mg/kg (male SWISS albino mice) [%] |
| --- | --- | --- | --- | --- | --- | --- | --- |
| CCN1CC2CC2(c2ccc(N3CCOCC3)cc2)C1 (centres unmarked) | > 32 | > 32 | > 32 | > 32 | 81.0 ± 7.1* % |  |  |
| CCN1CC2CC2(c2ccc(N3CCOC3=O)cc2)C1.Cl (centres unmarked) | > 32 | > 32 | > 32 | > 32 |  | 99.2 ± 0.8 |  |
| CCN1CC2CC2(c2ccc(N3CCCC3)cc2)C1 (centres unmarked) [drawing 519] |  |  |  |  |  |  | 99.9 ± 0.1 |
| CCN1CC2C(COC)C2(c2ccc(N3CCCC3)cc2)C1 (centres unmarked) [drawing 531] |  |  |  |  |  |  | 97.2 ± 1.2 |
| CC(=O)N1CC2CC2(c2ccc(N3C[C@H](CO)OC3=O)cc2)C1 (some centres unmarked) [drawing 534] | 4 (≈ 12.6 µM) | 4 (≈ 12.6 µM) | 4 (≈ 12.6 µM) | 2 (≈ 6.32 µM) |  | 5.1 ± 1.4 |  |
| CCN1CC2CC2(c2ccc(N3CCCC3)cc2)C1 (centres unmarked) [drawing 535] | > 32 | > 32 | > 32 | > 32 |  | 99.9 ± 0.1 |  |
| c1cc(C23CNCC2C3)ccc1N1CCOCC1 (centres unmarked) [drawing 537] | > 32 | > 32 | > 32 | > 32 | 84.8* % |  |  |
| CCN1CC2C(COC)C2(c2ccc(N3CCCC3)cc2)C1 (centres unmarked) [drawing 538] | > 32 | > 32 | > 32 | > 32 |  | 97.2 ± 1.2 |  |
